Data on 16 molecules can be found in US7888355B2, “Compositions and methods for inhibiting growth and metastasis of melanoma” (Burnham Institute for Medical Research, priority 2007, dated 2011).

By EC50 is commonly meant the concentration giving half of the maximal effect.

A value given as a limit tells only on which side of the number the result lay.

Data set [1] has as its system SW1 cells. The data set is described as follows: cells. The format is cell-based, mouse. The settings on record: for Activity or EC50 (μM) in SW1 cells: active/inactive wording, concentration given in cell. As for the experimental part: (§1) Cell lines. Mouse melanoma (SW1) and human melanoma (LU1205) cells were maintained in DMEM supplemented with 10% FBS, L-glutamine and antibiotics. The human melanoma cell lines MEWO and WM115 were maintained in RPMI supplemented with 10% FBS and antibiotics. Primary mouse melanocytes were cultured in F-12 media supplemented with 10% FBS, antibiotics, IBMX (isobuthyl-methylxantine), bovine pituitary extract, and TPA.
Mitochondrial activity and apoptosis. Cells were exposed to the chemicals for 12-48 hours as indicated in Results. To measure changes in mitochondrial activity reflective of general cell viability, the ATPLITE ATP detection assay was used according to the manufacturer's recommendations (Perkin Elmer). Apoptosis analysis was performed by flow cytometry of PI-stained cells. The percentage of cells to the left of the diploid G0/1 peak, characteristic of hypodiploid cells that have partially lost DNA, was calculated as percentage of apoptotic cells (Bhoumik et al., PNAS 101:4222-7, 2004). Analysis of changes in Caspase 8 expression pattern was performed using immunoblot analysis. […]
Characterization of CSL and AIGA effects on mouse melanoma cells. The structures of AIGA and CSL are depicted in FIGS. 1a and 1b. AIGA was tested for cytotoxicity at concentrations ranging between 0.1 and 2 μM, whereas CSL was used at a concentration of 0.01 to 0.3 μM. SW1 cells or normal melanocytes were seeded on 96 well plates and 24 h late, cells were treated with the indicated concentrations of ATF2 50-100 peptide, AIGA, or CSL for 20 h. ATF2 50-100 peptide (cloned in mammalian expression vector in frame with penetratin was transfected with the aid of lipofectamine) was used as a positive control. ATP levels were used as an indicator of cell viability and were measured using the ATPLITE ATP detection assay kit. The number of surviving cells upon AIGA treatment was normalized to the number of surviving cells under the control treatment, and the normalized number was designated as the “% Viability.” Results shown in FIGS. 1c-1f represent 3 experiments. Treatment of SW1 melanoma cells with 1 μM of AIGA reduced the viability of melanoma cells to 10%, (FIG. 1c). Treatment of the SW1 cells with 0.05 μM of CSL reduced the viability of melanoma cells to 50%, and 0.1 μM reduced it to 10% (FIG. 1d). […] Normal melanocytes and fibroblasts were used as a control.
Thus, the two compounds were evaluated to determine if they require JNK activity for their effects on melanoma cells. To this end, the ability of AIGA or CSL to affect the viability of melanoma cells in the presence of a JNK inhibitor was tested. SW1 cells, with or without a 30-minute pretreatment with the JNK inhibitor SP600125 (10 μM), were contacted with AIGA or CSL at the indicated concentrations for 20 h. ATP levels were used to measure the cell viability using the ATPLITE kit. The number of surviving cells upon AIGA or CSL treatment was normalized to the number of surviving cells under the control treatment, and the normalized number was designated as the “% Viability.” Shown are representative results from 2 experiments. […] Of note, inhibition of JNK activity was more pronounced at lower concentrations of CSL compared with AIGA. […] To assess whether these compounds affect JNK activity, changes in JNK phosphorylation on residues 183/185, which are required for its kinase activity, were monitored. Western blot analysis for JNK phosphorylation on residues 183/185 was performed on protein extracts that were prepared from cells treated with AIGA at concentrations of 0.5 μM, 1.0 μM, and 2.0 μM and a control with no AIGA treatment. Duplicate samples were treated with JNK inhibitor (SP600125). Total level of JNK was analyzed in parallel. […]

The subject of data set [2] is WM793 cells. The data set is described as follows: WM793 melanoma cell viability. It is filed as cell-based, human. The settings on record: active/inactive wording, concentration given in cell. As to the method: (§2) Mitochondrial activity and apoptosis. Cells were exposed to the chemicals for 12-48 hours as indicated in Results. To measure changes in mitochondrial activity reflective of general cell viability, the ATPLITE ATP detection assay was used according to the manufacturer's recommendations (Perkin Elmer). Apoptosis analysis was performed by flow cytometry of PI-stained cells. The percentage of cells to the left of the diploid G0/1 peak, characteristic of hypodiploid cells that have partially lost DNA, was calculated as percentage of apoptotic cells (Bhoumik et al., PNAS 101:4222-7, 2004). Analysis of changes in Caspase 8 expression pattern was performed using immunoblot analysis.

In data set [3] the test system is WM115 cells. As to the kind of experiment: WM115 melanoma cell viability. The settings on record: active/inactive wording, concentration given in cell. The format is cell-based, human. As to the method:
as §1, §2
The effects of CSL and AIGA on the human melanoma cell lines WM115 and MEWO were assessed. AIGA reduced the viability of the human melanoma cultures when added at a concentration of 0.5-2 μM (FIG. 5a and FIG. 5c) whereas CSL reduced their viability at a concentration of 0.1 μM-2 μM in WM115 cells (FIG. 5b) and 0.05 μM-2 μM in MeWO cells (FIG. 5d).

Data set [4] concerns Human melanoma LU1205 cells. As to the kind of experiment: LU1205 lung metastasis in nude mice. It is filed as in vivo, mouse. The settings on record: compound every second day, analysis 60 days after injection. As for the experimental part: (§3) Tumor growth and metastasis in vivo. GFP-expressing SW1 cells were trypsinized, resuspended in PBS, and injected subcutaneously (1×10^6) into the lower flank of 6 to 7-week-old mice. When tumors reached a size of about 50 mm^3, the indicated compounds (100 μL of the vehicle—10% DMSO, 70% Cremophor/ethanol (3:1), and 20% PBS and 1.0 mg/kg of celastrol or 0.5 mg/kg of the derivatives CA16, CA19) were injected i.p. every alternate day. Body weight and tumor growth were monitored every 2 days. GFP-expressing SW1 tumors were monitored in vivo on shaved mice with a light box illuminated by blue light fiber optics (Lightools Research; Encinitas, Calif.), and imaging was carried out with a digital camera (Nikon D100). Tumors were measured for up to 3 weeks. For metastases studies, LU1205 cells (1×10^6) were injected i.v. into the lateral tail vein of nude mice. At the end of the experiment, the lungs and tumors were excised and weighed. To detect metastatic lesions, lungs were fixed in formalin, embedded in paraffin and subjected to hematoxylin and eosin staining.
The effect of CSL and CSL derivatives, CA16 and CA19, on the metastatic capacity of melanoma cells was then determined. Human melanoma LU1205 cells were injected into the tail vein of nude mice, followed by administration of the compounds every second day. This approach allows monitoring of changes in the number of lesions formed on the lungs, a primary organ for tumor cell growth under this experimental approach. Analysis performed 60 days following injection determined changes in the number and size of metastatic lesions in each of the experimental groups.

Data set [5] concerns SW1 mouse melanoma. As to the kind of experiment: SW1 metastatic lesions in syngeneic C3H mice. Conditions: SW1 cells s.c. in C3H mice. The format is in vivo. As for the experimental part: as §3
To further assess the impact of these compounds on the development of metastatic lesions, the SW1 mouse melanoma model using the syngeneic C3H strain was employed. Subcutaneous injection of SW1 cells results in tumor formation at the site of injection followed by metastasis to different sites within 6-8 weeks.

Data set [6] deals with SW1 tumors. As to the kind of experiment: SW1 tumor growth in syngeneic C3H mice. It is filed as in vivo, mouse. Conditions: 0.5 mg/kg i.p. every second day for 24 days. As to the method:
as §3
(§4) To assess the ability of CSL and CSL derivatives to affect the tumorigenicity and metastasis of melanoma, the mouse SW1 cell lines were used in syngeneic models. Injection of SW1 melanoma cells subcutaneously into C3H mice was followed by daily injections of CSL intraperitoneally (IP). […] Briefly, SW1 cells that stably express GFP were injected s.c into C3H mice. When the tumor reached the size of 50 mm^3, the vehicle, CSL (1 mg/kg), CA16 (0.5 mg/kg) or CA19 (0.5 mg/kg) were administered i.p, every second day for a period of 24 days. Tumor size was measured at the indicated times. Data presented in FIG. 6b represents two experiments.

Data set [7] in a line: Tolerability of administration to mice. The format is in vivo, mouse. Conditions: daily administration, doses up to 1 mg/kg. As for the experimental part: as §4

For `COc1ccc(CNC(=O)C2(C)CCC3(C)CCC4(C)C5=CC=C6C(=CC(=O)C(O)=C6C)C5(C)CCC4(C)C3C2)cc1` (centres unmarked) [CA01], in data set [1], the “Activity or EC50 (μM) in SW1 cells” value is on record as “active”.

As to `CCOC(=O)C1(C)CCC2(C)CCC3(C)C4=CC=C5C(=CC(=O)C(O)=C5C)C4(C)CCC3(C)C2C1` (centres unmarked) [CA18], in data set [1] (SW1 cells, compared with celastrol or other derivatives), the “ability to induce melanoma cell death, in words” value is recorded as “not that efficient in the SW1 melanoma cells compared to CA19”.

On to `CC1=C(O)C(=O)C=C2C1=CC=C1C2(C)CCC2(C)C3CC(C)(C(=O)N(C)C)CCC3(C)CCC12C` (centres unmarked) [CA05], for which the “Activity or EC50 (μM) in SW1 cells” value in data set [1] is on record as “active”. Further, the “Activity or EC50 (μM) in WM793 cells” value in data set [2] was “inactive”.

`CNC(=O)C1(C)CCC2(C)CCC3(C)C4=CC=C5C(=CC(=O)C(O)=C5C)C4(C)CCC3(C)C2C1` (centres unmarked) [CA13]: the “Activity or EC50 (μM) in WM115 cells” value in data set [3] is “inactive”. The “Activity or EC50 (μM) in WM793 cells” value in data set [2] was “inactive”.

`CC1=C(O)C(=O)C=C2C1=CC=C1C2(C)CCC2(C)C3CC(C)(C(=O)OCc4ccccc4)CCC3(C)CCC12C` (centres unmarked) [CA16]: in data set [4], the “1-2 mm and mediastinal lesions” value is listed as “some activity was observed”; the “development of large lung lesions” value was “no impact”. In addition, in data set [5], the “development of small sized lesions” value is given as “opposite effect” and the metastatic lesions entry is “somewhat active”. The “decrease in tumor size” value in data set [6] is “about 50%”. The “toxicity or discomfort in mice” value in data set [7] was “did not result in toxicity or any noticeable discomfort”.

Turning to `CC1=C(O)C(=O)C=C2C1=CC=C1C2(C)CCC2(C)C3CC(C)(C(=O)NCc4cccnc4)CCC3(C)CCC12C` (centres unmarked) [CA03], in data set [1], the “Activity or EC50 (μM) in SW1 cells” value is listed as “active”. Besides, the “Activity or EC50 (μM) in WM115 cells” value in data set [3] is “Inactive”. Also, the “Activity or EC50 (μM) in WM793 cells” value in data set [2] is “inactive”.

`CC1=C(O)C(=O)C=C2C1=CC=C1C2(C)CCC2(C)C3CC(C)(C(=O)N4CCN(C)CC4)CCC3(C)CCC12C` (centres unmarked) [CA14]: in data set [3], the “Activity or EC50 (μM) in WM115 cells” value was “inactive”. In addition, the “Activity or EC50 (μM) in WM793 cells” value in data set [2] is “inactive”.

In the case of `Cc1c(O)c(O)cc2c1CC=C1[C@@]2(C)CC[C@@]2(C)[C@@H]3C[C@](C)(C(=O)O)CC[C@]3(C)CC[C@]12C` [Dihydrocelastrol, dihydrocelastrol, reference compound], the “Activity or EC50 (μM) in SW1 cells” value in data set [1] was “inactive”.

With `COC(=O)[C@]1(C)CC[C@]2(C)CC[C@]3(C)C4=CC=C5C(=CC(=O)C(O)=C5C)[C@]4(C)CC[C@@]3(C)[C@@H]2C1` [Pristimerin, pristimerin, reference compound], the EC50 in data set [1] (Mus musculus, numeric EC50 cells of the column, read-out: Activity or EC50 (μM) in SW1 cells) was below 0.1 µM.

For `COC(=O)COC(=O)C1(C)CCC2(C)CCC3(C)C4=CC=C5C(=CC(=O)C(O)=C5C)C4(C)CCC3(C)C2C1` (centres unmarked) [CA15], the “Activity or EC50 (μM) in SW1 cells” value in data set [1] is “Inactive”.

As for `COCCNC(=O)C1(C)CCC2(C)CCC3(C)C4=CC=C5C(=CC(=O)C(O)=C5C)C4(C)CCC3(C)C2C1` (centres unmarked) [CA07], the “Activity or EC50 (μM) in SW1 cells” value in data set [1] was “active”. Also, the “Activity or EC50 (μM) in WM115 cells” value in data set [3] was “inactive”.

In the case of `CC1=C(O)C(=O)C=C2C1=CC=C1C2(C)CCC2(C)C3CC(C)(C(=O)NCc4ccccc4)CCC3(C)CCC12C` (centres unmarked) [CA02], the “Activity or EC50 (μM) in SW1 cells” value in data set [1] is “inactive”. Moreover, in data set [3], the “Activity or EC50 (μM) in WM115 cells” value was “inactive”. Further, the “Activity or EC50 (μM) in WM793 cells” value in data set [2] is “inactive”.

Consider `CC1=C(O)C(=O)C=C2C1=CC=C1C2(C)CCC2(C)C3CC(C)(C(=O)N4CCCC4)CCC3(C)CCC12C` (centres unmarked) [CA06], for which the “Activity or EC50 (μM) in SW1 cells” value in data set [1] is recorded as “active”.

As to `CC1=C(O)C(=O)C=C2C1=CC=C1C2(C)CCC2(C)C3CC(C)(C(=O)NC(C)C)CCC3(C)CCC12C` (centres unmarked) [CA04], the “Activity or EC50 (μM) in SW1 cells” value in data set [1] is reported as “active”. The “Activity or EC50 (μM) in WM793 cells” value in data set [2] is “inactive”.

For the molecule `CC1=C(O)C(=O)C=C2C1=CC=C1C2(C)CCC2(C)C3CC(C)(C(=O)N4CCOCC4)CCC3(C)CCC12C` (centres unmarked) [CA08], in data set [1], the “Activity or EC50 (μM) in SW1 cells” value is “inactive”. For the same molecule, the “Activity or EC50 (μM) in WM115 cells” value in data set [3] was “inactive”. Further, the “Activity or EC50 (μM) in WM793 cells” value in data set [2] is “inactive”.

As for `CC1=C(O)C(=O)C=C2C1=CC=C1C2(C)CCC2(C)C3CC(C)(C(=O)OC(C)C)CCC3(C)CCC12C` (centres unmarked) [CA19], in data set [4], the “growth of large, medium and small sized lesions in the lungs” value was “efficient in inhibiting growth of large medium and small sized lesions in the lungs”. Besides, the metastatic lesions entry in data set [5] is recorded as “potently exhibit the ability to inhibit large as well as small metastatic lesions, with the exception of the 1-2 mm range”. Also, in data set [6], the “reduction of tumor growth” value is on record as 5 fold. For the same molecule, in data set [7], the “toxicity or discomfort in mice” value is recorded as “did not result in toxicity or any noticeable discomfort”.
